From patent US20220142941A1, “COMBINATION THERAPEUTIC REGIMENS WITH 1,6-DIBROMO-1,6-DIDEOXY-DULCITOL” (Eleison Pharmaceuticals LLC, priority 2019, published 2022)
“Also recorded” adds a separate entry of the source.

Legend:
Assay type in all cases: cell-based, human
[1] = tested on: panel of 20 patient derived cell cultures; experiment: DBD combination treatment, overall result over the panel; settings: Tables 2 and 3, day 5 and day 8, all cultures
Description: (§1) Crystalline DBD polymorph treatment was combined with chemotherapy, radiotherapy and targeted inhibitors to determine whether the crystalline DBD polymorph form could: enhance efficacy of the conventional therapies; enhance efficacy when combined with newer ‘targeted’ therapies; or would make (a subset of) cultures more sensitive to this treatment.
(§2) Therefore, cultures were treated with: • a.

GS365NS = experiment: DBD combination treatment, viability enhancement factor; settings: GS365NS (p17 + p16), labelled therapy combined with crystalline DBD polymorph
Description: as §1, §2

GS257NS = experiment: as above; settings: GS257NS (p16 + p17), labelled therapy combined with crystalline DBD polymorph;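 note: DBD at its own IC50 and half IC50 determined at Day 5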
Description: as §1, §2

GS323periNS = experiment: as above; settings: Day 5; GS323periNS (p20 + p19); labelled therapy combined with crystalline DBD polymorph
Description: as §1, §2

GS249NS = experiment: as above; settings: Day 5; GS249NS (p17); labelled therapy combined with crystalline DBD polymorph
Description: as §1, §2

GS289NS = experiment: as above; settings: GS289NS (p15 + p16), labelled therapy combined with crystalline DBD polymorph;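 note: DBD at its own IC50 and half IC50 determined at Day 5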
Description: as §1, §2

GS304NS = experiment: as above; settings: GS304NS (p16), labelled therapy combined with crystalline DBD polymorph
Description: as §1, §2

GS224NS = experiment: as above; settings: GS224NS (p17), labelled therapy combined with crystalline DBD polymorph
Description: as §1, §2

GS186coreNS = experiment: as above; settings: GS186coreNS (p18), labelled therapy combined with crystalline DBD polymorph
Description: as §1, §2

GS324coreNS = experiment: as above; settings: GS324coreNS (p19), labelled therapy combined with crystalline DBD polymorph
Description: as §1, §2

GS261NS = experiment: as above; settings: GS261NS (p13), labelled therapy combined with crystalline DBD polymorph
Description: as §1, §2

GS184NS = experiment: as above; settings: GS184NS (p18 + p19), labelled therapy combined with crystalline DBD polymorph;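 note: DBD at its own IC50 and half IC50 determined at Day 5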
Description: as §1, §2

GS102periNS = experiment: as above; settings: GS102periNS (p20 + p21), labelled therapy combined with crystalline DBD polymorph
Description: as §1, §2

GS359NS = experiment: as above; settings: GS359NS (p15 + p14), labelled therapy combined with crystalline DBD polymorph
Description: as §1, §2

GS245NS = experiment: as above; settings: GS245NS (p16 + p15), labelled therapy combined with crystalline DBD polymorph
Description: as §1, §2

GS104periNS = experiment: as above; settings: GS104periNS (p21 + p22), labelled therapy combined with crystalline DBD polymorph
Description: as §1, §2

GS203NS = experiment: as above; settings: GS203NS (P19 + p18), labelled therapy combined with crystalline DBD polymorph
Description: as §1, §2

GS281NS = experiment: as above; settings: GS281NS (p15), labelled therapy combined with crystalline DBD polymorph
Description: as §1, §2

GS186periNS = experiment: as above; settings: GS186periNS (p15), labelled therapy combined with crystalline DBD polymorph
Description: as §1, §2

GS279coreNS = experiment: as above; settings: Day 5; GS279coreNS (p12 + p13); labelled therapy combined with crystalline DBD polymorph
Description: as §1, §2

GS279periNS = experiment: as above; settings: GS279periNS (p16 + p15), labelled therapy combined with crystalline DBD polymorph;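 note: DBD at its own IC50 and half IC50 determined at Day 5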
Description: as §1, §2

SMILES: Cc1ccc(NC(=O)c2ccc(CN3CCN(C)CC3)cc2)cc1Nc1nccc(-c2cccnc2)n1 [Imatinib]
- enhancement factors overall, in combination with DBD [1]: highest enhancement factors; also recorded: high enhancement factor, most cases

SMILES: Cn1nnc2c(C(N)=O)ncn2c1=O [TMZ, Temozolomide]
- enhancement factor (viability % of most effective monotherapy divided by viability % of combination) (GS365NS; Day 5): 1.156
- enhancement factor (viability % of most effective monotherapy divided by viability % of combination) (GS365NS; Day 8): 1.019
- enhancement factor (viability % of most effective monotherapy divided by viability % of combination) (GS257NS; Day 5): 1.005
- enhancement factor (viability % of most effective monotherapy divided by viability % of combination) (GS257NS; Day 8): 0.858
- enhancement factor (viability % of most effective monotherapy divided by viability % of combination) (GS323periNS): 1.553
- enhancement factor (viability % of most effective monotherapy divided by viability % of combination) (GS249NS): 1.602
- enhancement factor (viability % of most effective monotherapy divided by viability % of combination) (GS289NS; Day 5): 1.376
- enhancement factor (viability % of most effective monotherapy divided by viability % of combination) (GS289NS; Day 8): 1.032
- enhancement factor (viability % of most effective monotherapy divided by viability % of combination) (GS304NS; Day 5): 1.147
- enhancement factor (viability % of most effective monotherapy divided by viability % of combination) (GS304NS; Day 8): 1.134
- enhancement factor (viability % of most effective monotherapy divided by viability % of combination) (GS224NS; Day 5): 1.335
- enhancement factor (viability % of most effective monotherapy divided by viability % of combination) (GS224NS; Day 8): 1.470
- enhancement factor (viability % of most effective monotherapy divided by viability % of combination) (GS186coreNS; Day 5): 1.751
- enhancement factor (viability % of most effective monotherapy divided by viability % of combination) (GS186coreNS; Day 8): 2.029
- enhancement factor (viability % of most effective monotherapy divided by viability % of combination) (GS324coreNS; Day 5): 1.700
- enhancement factor (viability % of most effective monotherapy divided by viability % of combination) (GS324coreNS; Day 8): 1.377
- enhancement factor (viability % of most effective monotherapy divided by viability % of combination) (GS261NS; Day 5): 1.271
- enhancement factor (viability % of most effective monotherapy divided by viability % of combination) (GS261NS; Day 8): 1.462
- enhancement factor (viability % of most effective monotherapy divided by viability % of combination) (GS184NS; Day 5): 1.362
- enhancement factor (viability % of most effective monotherapy divided by viability % of combination) (GS184NS; Day 8): 1.531
- enhancement factor (viability % of most effective monotherapy divided by viability % of combination) (GS102periNS; Day 5): 1.268
- enhancement factor (viability % of most effective monotherapy divided by viability % of combination) (GS102periNS; Day 8): 1.309
- enhancement factor (viability % of most effective monotherapy divided by viability % of combination) (GS359NS; Day 5): 1.830
- enhancement factor (viability % of most effective monotherapy divided by viability % of combination) (GS359NS; Day 8): 1.700
- enhancement factor (viability % of most effective monotherapy divided by viability % of combination) (GS245NS; Day 5): 1.099
- enhancement factor (viability % of most effective monotherapy divided by viability % of combination) (GS245NS; Day 8): 1.088
- enhancement factor (viability % of most effective monotherapy divided by viability % of combination) (GS104periNS; Day 5): 1.101
- enhancement factor (viability % of most effective monotherapy divided by viability % of combination) (GS104periNS; Day 8): 0.987
- enhancement factor (viability % of most effective monotherapy divided by viability % of combination) (GS203NS; Day 5): 1.055
- enhancement factor (viability % of most effective monotherapy divided by viability % of combination) (GS203NS; Day 8): 1.159
- enhancement factor (viability % of most effective monotherapy divided by viability % of combination) (GS281NS; Day 5): 1.264
- enhancement factor (viability % of most effective monotherapy divided by viability % of combination) (GS281NS; Day 8): 1.161
- enhancement factor (viability % of most effective monotherapy divided by viability % of combination) (GS186periNS; Day 5): 2.167
- enhancement factor (viability % of most effective monotherapy divided by viability % of combination) (GS186periNS; Day 8): 1.220
- enhancement factor (viability % of most effective monotherapy divided by viability % of combination) (GS279coreNS): 1.440
- enhancement factor (viability % of most effective monotherapy divided by viability % of combination) (GS279periNS; Day 5): 1.162
- enhancement factor (viability % of most effective monotherapy divided by viability % of combination) (GS279periNS; Day 8): 1.129
